From patent US9611256B2, “Alkyne-, azide- and triazole-containing flavonoids as modulators for multidrug resistance in cancers” (The Hong Kong Polytechnic University, priority 2012, dated 2017)
Where two headings read alike, the source gives them in different places.

Experiments:
BCRP [1] = target: T1, BCRP (Homo sapiens, UniProt Q9UNQ0); test: Reversal of BCRP-mediated topotecan resistance in HEK293/R2 cells (cell proliferation assay); conditions: triazole dimers, anti vs syn; cell line not given (Table 1)
T1 sequence (Q9UNQ0 1-655): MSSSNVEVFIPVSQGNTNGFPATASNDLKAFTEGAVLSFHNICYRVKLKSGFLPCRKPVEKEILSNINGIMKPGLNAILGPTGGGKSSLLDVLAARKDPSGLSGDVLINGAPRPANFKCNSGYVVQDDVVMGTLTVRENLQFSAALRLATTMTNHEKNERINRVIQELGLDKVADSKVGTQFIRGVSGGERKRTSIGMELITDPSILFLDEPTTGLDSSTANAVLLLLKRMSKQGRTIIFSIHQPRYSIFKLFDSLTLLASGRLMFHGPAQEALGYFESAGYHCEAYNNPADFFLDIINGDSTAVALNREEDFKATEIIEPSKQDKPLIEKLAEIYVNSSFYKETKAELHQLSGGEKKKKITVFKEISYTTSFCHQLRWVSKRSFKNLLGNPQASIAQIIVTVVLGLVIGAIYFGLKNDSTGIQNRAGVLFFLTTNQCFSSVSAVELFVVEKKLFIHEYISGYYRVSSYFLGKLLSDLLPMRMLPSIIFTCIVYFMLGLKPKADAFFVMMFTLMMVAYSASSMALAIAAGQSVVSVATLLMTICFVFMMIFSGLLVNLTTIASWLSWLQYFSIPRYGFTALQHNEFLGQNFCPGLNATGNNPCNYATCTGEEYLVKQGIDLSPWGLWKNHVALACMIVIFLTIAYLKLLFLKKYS

P-gp [2] = target: T2, P-gp (Homo sapiens, UniProt P08183); conditions: mouse (L929 or Raw264.7) and human (LCC6MDR), 5 days
[3] = system: P-gp, MRP1 and BCRP transporters; test: Selectivity for ABC transporters, determined from % of reversion (Tables 1 and 2); assay type: cell-based, human; conditions: determined from % of reversion in Table 1 (>80% strongly, 79-50% moderately selective)
Procedure, shortened: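 Compounds are grouped as acting on one, two or all three of P-gp, MRP1 and BCRP. The basis is percent reversion: 79-50% means moderate selectivity, above 80% strong selectivity.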

BCRP [4] = target: T1, BCRP; test: Reversal of BCRP-mediated topotecan resistance in MCF7-MX100 cells (cell proliferation assay); conditions: (IC50 towards L929 or Raw264.7)/(EC50 for reversing drug resistance)
in vitro = conditions: mouse
P-gp [5] = target: T2, P-gp; test: cell-based
MRP1 [6] = target: T3, MRP1 (Homo sapiens, UniProt P33527); test: cell-based
LCC6 cells = test: Cell proliferation assay without modulator, LCC6; assay type: cell-based; conditions: Homo sapiens, LCC-6, read-out: IC50 of anticancer drug, parental LCC6 cells
LCC6MDR = test: Cell proliferation assay without modulator, LCC6MDR; assay type: cell-based, human
MRP1 [7] = target: T3, MRP1; test: Reversal of MRP1-mediated vincristine resistance in 2008/MRP1 cells (cell proliferation assay); conditions: (IC50 towards L929 or Raw264.7)/(EC50 for reversing drug resistance)
MRP1 [8] = target: T3, MRP1; test: Reversal of MRP1-mediated DOX resistance in 2008/MRP1 cells (cell proliferation assay); conditions: for DOX resistance of 2008/MRP1 Therapeutic index: (IC50 towards L929 or Raw264.7)/(EC50 for reversing drug resistance)
MRP1 [9] = target: T3, MRP1; test: cell-based; remark: listed apart in the source
2008/MRP1 = test: Cell proliferation assay, 2008/MRP1
BCRP [10] = target: T1, BCRP; test: cell-based

T2 sequence (P08183 whole entry): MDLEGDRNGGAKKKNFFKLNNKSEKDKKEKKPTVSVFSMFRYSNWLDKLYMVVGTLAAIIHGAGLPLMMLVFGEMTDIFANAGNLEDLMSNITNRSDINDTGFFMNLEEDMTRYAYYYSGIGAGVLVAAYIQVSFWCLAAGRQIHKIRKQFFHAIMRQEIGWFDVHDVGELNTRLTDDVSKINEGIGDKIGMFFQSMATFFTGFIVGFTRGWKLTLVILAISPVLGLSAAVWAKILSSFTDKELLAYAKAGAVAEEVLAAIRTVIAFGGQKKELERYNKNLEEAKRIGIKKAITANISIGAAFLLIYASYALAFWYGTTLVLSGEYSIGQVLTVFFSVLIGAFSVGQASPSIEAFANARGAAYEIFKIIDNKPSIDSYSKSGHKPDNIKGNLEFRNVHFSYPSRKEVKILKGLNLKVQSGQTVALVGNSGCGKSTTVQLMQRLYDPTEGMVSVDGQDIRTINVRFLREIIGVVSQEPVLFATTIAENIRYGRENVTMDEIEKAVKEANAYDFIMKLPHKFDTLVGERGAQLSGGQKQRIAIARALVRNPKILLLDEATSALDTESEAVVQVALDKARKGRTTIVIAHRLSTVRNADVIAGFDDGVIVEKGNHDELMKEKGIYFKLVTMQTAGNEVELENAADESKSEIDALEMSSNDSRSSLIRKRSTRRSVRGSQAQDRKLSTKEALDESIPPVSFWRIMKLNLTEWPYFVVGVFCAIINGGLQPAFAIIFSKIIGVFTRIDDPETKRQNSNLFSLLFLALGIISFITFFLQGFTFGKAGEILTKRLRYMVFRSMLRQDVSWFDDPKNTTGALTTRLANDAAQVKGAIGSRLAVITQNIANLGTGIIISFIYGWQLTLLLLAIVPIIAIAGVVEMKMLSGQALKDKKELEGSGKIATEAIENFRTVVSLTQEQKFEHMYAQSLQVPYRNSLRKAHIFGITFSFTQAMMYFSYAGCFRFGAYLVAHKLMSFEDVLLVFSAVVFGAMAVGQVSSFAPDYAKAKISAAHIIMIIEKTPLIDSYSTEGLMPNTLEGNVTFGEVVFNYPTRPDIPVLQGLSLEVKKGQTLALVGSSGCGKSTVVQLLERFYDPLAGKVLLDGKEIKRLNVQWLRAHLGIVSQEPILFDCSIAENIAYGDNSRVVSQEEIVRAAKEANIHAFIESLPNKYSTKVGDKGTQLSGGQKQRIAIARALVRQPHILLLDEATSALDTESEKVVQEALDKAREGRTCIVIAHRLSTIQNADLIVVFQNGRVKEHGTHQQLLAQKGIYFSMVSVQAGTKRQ
T3 sequence (P33527 whole entry): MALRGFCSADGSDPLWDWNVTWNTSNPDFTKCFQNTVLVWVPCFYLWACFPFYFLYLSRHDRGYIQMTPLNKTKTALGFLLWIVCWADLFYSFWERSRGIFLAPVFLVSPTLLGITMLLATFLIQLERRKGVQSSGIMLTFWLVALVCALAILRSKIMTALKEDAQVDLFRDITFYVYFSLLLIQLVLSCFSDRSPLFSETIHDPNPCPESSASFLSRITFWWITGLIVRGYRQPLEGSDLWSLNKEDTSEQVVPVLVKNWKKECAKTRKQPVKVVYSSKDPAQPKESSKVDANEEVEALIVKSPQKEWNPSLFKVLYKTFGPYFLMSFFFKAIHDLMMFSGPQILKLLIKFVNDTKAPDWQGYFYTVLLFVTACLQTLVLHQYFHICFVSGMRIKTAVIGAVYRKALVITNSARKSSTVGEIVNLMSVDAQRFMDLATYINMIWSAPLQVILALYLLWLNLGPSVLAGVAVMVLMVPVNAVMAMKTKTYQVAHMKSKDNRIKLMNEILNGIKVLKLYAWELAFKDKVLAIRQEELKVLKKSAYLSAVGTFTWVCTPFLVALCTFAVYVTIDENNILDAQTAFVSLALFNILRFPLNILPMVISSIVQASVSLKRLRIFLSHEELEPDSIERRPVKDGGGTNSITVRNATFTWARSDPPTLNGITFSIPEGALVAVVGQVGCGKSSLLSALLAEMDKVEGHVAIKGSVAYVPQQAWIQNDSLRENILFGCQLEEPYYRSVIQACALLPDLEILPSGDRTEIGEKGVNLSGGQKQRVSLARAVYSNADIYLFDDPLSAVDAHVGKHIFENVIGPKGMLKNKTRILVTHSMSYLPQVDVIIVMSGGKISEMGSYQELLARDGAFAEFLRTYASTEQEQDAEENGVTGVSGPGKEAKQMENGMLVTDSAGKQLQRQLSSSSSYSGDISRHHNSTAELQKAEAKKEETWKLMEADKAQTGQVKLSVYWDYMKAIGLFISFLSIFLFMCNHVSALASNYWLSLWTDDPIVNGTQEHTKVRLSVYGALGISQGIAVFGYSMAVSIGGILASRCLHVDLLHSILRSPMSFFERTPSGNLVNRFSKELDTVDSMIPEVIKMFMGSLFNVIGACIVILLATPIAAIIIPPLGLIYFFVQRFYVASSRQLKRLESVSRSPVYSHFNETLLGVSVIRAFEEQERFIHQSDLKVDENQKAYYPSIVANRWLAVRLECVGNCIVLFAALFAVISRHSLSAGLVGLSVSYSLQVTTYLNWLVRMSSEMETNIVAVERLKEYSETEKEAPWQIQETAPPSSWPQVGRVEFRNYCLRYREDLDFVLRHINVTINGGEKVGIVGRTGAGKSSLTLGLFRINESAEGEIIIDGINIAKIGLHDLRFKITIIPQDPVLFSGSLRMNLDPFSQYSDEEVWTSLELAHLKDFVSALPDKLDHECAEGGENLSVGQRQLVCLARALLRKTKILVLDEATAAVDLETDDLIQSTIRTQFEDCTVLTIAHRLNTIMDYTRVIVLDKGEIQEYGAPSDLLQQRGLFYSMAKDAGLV

Cc1ccc2oc(-c3ccc(OCCCCc4cnnn4CCOCCOc4ccc(-c5cc(=O)c6ccccc6o5)cc4)cc3)cc(=O)c2c1 [syn-Ac5Az1, 6-Methyl-2-(4-(4-(1-(2-(2-(4-(4-oxo-4H-chromen-2-yl)phenoxy)ethoxy)ethyl)-1H-1,2,3-triazol-5-yl)butoxy)phenyl)-4H-chromen-4-one]
Relative fold (RF), BCRP-modulating activity (BCRP [1]): 11.6

O=c1cc(-c2ccccc2)oc2cc(OCCOCc3cn(CCOCCOc4ccc(-c5oc6ccccc6c(=O)c5OCc5ccccc5)cc4)nn3)ccc12 [Ac13Az10, 3-(Benzyloxy)-2-(4-(2-(2-(4-((2-((4-oxo-2-phenyl-4H-chromen-7-yl)oxy)ethoxy)methyl)-1H-1,2,3-triazol-1-yl)ethoxy)ethoxy)phenyl)-4H-chromen-4-one]
Paclitaxel resistance of LCC6MDR Therapeutic index (P-gp [2]): >294.1
Selectivity for ABC transporters (P-gp, MRP1, BCRP) [3]: Pgp- and BCRP-dual selectivity
Topotecan resistance of MCF7-MX100 Therapeutic index (BCRP [4]): >845.3
IC50 at 5 days (in vitro): > 100000 nM
EC50 (P-gp [5]): 340 nM

Cc1ccc2oc(-c3ccc(OCCCCc4cn(CCOCCOc5ccc6c(=O)cc(-c7ccccc7)oc6c5)nn4)cc3)cc(=O)c2c1 [Ac5Az11, 6-Methyl-2-(4-(4-(1-(2-(2-((4-oxo-2-phenyl-4H-chromen-7-yl)oxy)ethoxy)ethyl)-1H-1,2,3-triazol-4-yl)butoxy)phenyl)-4H-chromen-4-one]
EC50 (MRP1 [6]): 135 ± 10 nM
IC50 at 5 days (in vitro): > 100000 nM
EC50 (P-gp [5]): 160 ± 21 nM

CC(=O)O[C@H]1C(=O)[C@@]2(C)[C@H]([C@H](OC(=O)c3ccccc3)[C@]3(O)C[C@H](OC(=O)[C@H](O)[C@@H](NC(=O)c4ccccc4)c4ccccc4)C(C)=C1C3(C)C)[C@]1(OC(C)=O)CO[C@@H]1C[C@@H]2O [paclitaxel]
IC50 (LCC6 cells): 1.6 ± 0.3 nM
fold greater resistance of LCC6MDR than parental LCC6 cells (LCC6MDR): about 99.2 fold
IC50 (LCC6MDR; Homo sapiens, LCC6MDR, read-out: IC50 of anticancer drug, LCC6MDR): 159 ± 6.1 nM

O=c1cc(-c2ccc(OCCOCCOCCn3cc(CN(Cc4ccccc4)Cc4cn(CCOCCOCCOc5ccc(-c6cc(=O)c7ccccc7o6)cc5)nn4)nn3)cc2)oc2ccccc12 [Ac15Az2, 2,2′-((((((((4,4′-((Benzylazanediyl)bis(methylene))bis(1H-1,2,3-triazole-4,1-diyl))bis(ethane-2,1-diyl))bis(oxy))bis(ethane-2,1-diyl))bis(oxy))bis(ethane-2,1-diyl))bis(oxy))bis(4,1-phenylene))bis(4H-chromen-4-one)]
EC50 (MRP1 [6]): 550 nM
Vincristine resistance of 2008/MRP1 Therapeutic index (MRP1 [7]): >181.8
Selectivity for ABC transporters (P-gp, MRP1, BCRP) [3]: mono-MRP1 selectivity
DOX resistance of 2008/MRP1 Therapeutic index (MRP1 [8]): >188.7
IC50 at 5 days (in vitro): > 100000 nM
EC50 (MRP1 [9]): 530 ± 120 nM

Cc1ccc2oc(-c3ccc(OCCCCc4cn(CCOCCOCCOc5ccc6c(=O)cc(-c7ccccc7)oc6c5)nn4)cc3)cc(=O)c2c1 [Ac5Az12, 6-Methyl-2-(4-(4-(1-(2-(2-(2-((4-oxo-2-phenyl-4H-chromen-7-yl)oxy)ethoxy)ethoxy)ethyl)-1H-1,2,3-triazol-4-yl)butoxy)phenyl)-4H-chromen-4-one]
Vincristine resistance of 2008/MRP1 Therapeutic index (MRP1 [7]): >1081.1
Paclitaxel resistance of LCC6MDR Therapeutic index (P-gp [2]): >709.2
Selectivity for ABC transporters (P-gp, MRP1, BCRP) [3]: mono-BCRP selectivity
DOX resistance of 2008/MRP1 Therapeutic index (MRP1 [8]): >759.3
Topotecan resistance of MCF7-MX100 Therapeutic index (BCRP [4]): >1600.0
IC50 at 5 days (in vitro): > 100000 nM
EC50 (P-gp [5]): 141 ± 1 nM

Cc1ccc2oc(-c3ccc(OCCCCc4cn(CCOCCOCCOc5ccc(-c6cc(=O)c7ccccc7o6)cc5)nn4)cc3)cc(=O)c2c1 [Ac5Az2, 6-Methyl-2-(4-(4-(1-(2-(2-(2-(4-(4-oxo-4H-chromen-2-yl)phenoxy)ethoxy)ethoxy)ethyl)-1H-1,2,3-triazol-4-yl)butoxy)phenyl)-4H-chromen-4-one]
Relative fold (RF), BCRP-modulating activity (BCRP [1]): 13.5
Selectivity for ABC transporters (P-gp, MRP1, BCRP) [3]: mono-MRP1 selectivity

Cc1ccc2oc(-c3ccc(OCCCCc4cn(CCOCCOc5ccc(-c6cc(=O)c7cc(F)ccc7o6)cc5)nn4)cc3)cc(=O)c2c1 [Ac5Az7, 6-Fluoro-2-(4-(2-(2-(4-(4-(4-(6-methyl-4-oxo-4H-chromen-2-yl)phenoxy)butyl)-1H-1,2,3-triazol-1-yl)ethoxy)ethoxy)phenyl)-4H-chromen-4-one]
IC50 at 5 days (in vitro): > 100000 nM
EC50 (P-gp [5]): 157 nM

Cc1ccc2oc(-c3ccc(OCCCCc4cnnn4CCOCCOCCOc4ccc(-c5cc(=O)c6ccccc6o5)cc4)cc3)cc(=O)c2c1 [syn-Ac5Az2, 6-Methyl-2-(4-(4-(1-(2-(2-(2-(4-(4-oxo-4H-chromen-2-yl)phenoxy)ethoxy)ethoxy)ethyl)-1H-1,2,3-triazol-5-yl)butoxy)phenyl)-4H-chromen-4-one]
Relative fold (RF), BCRP-modulating activity (BCRP [1]): 9.3
MRP1 inhibitory activity of syn-isomer compared with anti-isomer (MRP1 [8]; syn vs anti triazole regioisomer): poorer MRP1 inhibitory activity than the anti-isomer Ac5Az2

O=c1cc(-c2ccccc2)oc2cc(OCCCCc3cn(CCOCCOc4ccc(-c5oc6ccccc6c(=O)c5OCc5ccccc5)cc4)nn3)ccc12 [Ac12Az10, 3-(Benzyloxy)-2-(4-(2-(2-(4-(4-((4-oxo-2-phenyl-4H-chromen-7-yl)oxy)butyl)-1H-1,2,3-triazol-1-yl)ethoxy)ethoxy)phenyl)-4H-chromen-4-one]
Paclitaxel resistance of LCC6MDR Therapeutic index (P-gp [2]): >303.0
Selectivity for ABC transporters (P-gp, MRP1, BCRP) [3]: Pgp- and BCRP-dual selectivity
Topotecan resistance of MCF7-MX100 Therapeutic index (BCRP [4]): >2924.0
IC50 at 5 days (in vitro): > 100000 nM
EC50 (P-gp [5]): 330 nM

CC[C@]1(O)C[C@H]2CN(CCc3c([nH]c4ccccc34)[C@@](C(=O)OC)(c3cc4c(cc3OC)N(C=O)[C@H]3[C@@](O)(C(=O)OC)[C@H](OC(C)=O)[C@]5(CC)C=CCN6CC[C@]43[C@@H]65)C2)C1 [vincristine]
IC50 (2008/MRP1; Homo sapiens, 2008/MRP1, read-out: IC50 of anticancer drug, 2008/MRP1): 123 nM
fold more resistance of 2008/MRP1 than parental 2008/P (2008/MRP1; without modulator): about 2.4 fold

Cc1ccc2oc(-c3ccc(OCCOCCOCCn4cc(CCCCOc5ccc6c(=O)cc(-c7ccccc7)oc6c5)nn4)cc3)cc(=O)c2c1 [Ac12Az3, 6-Methyl-2-(4-(2-(2-(2-(4-(4-((4-oxo-2-phenyl-4H-chromen-7-yl)oxy)butyl)-1H-1,2,3-triazol-1-yl)ethoxy)ethoxy)ethoxy)phenyl)-4H-chromen-4-one]
Vincristine resistance of 2008/MRP1 Therapeutic index (MRP1 [7]): >613.5
Paclitaxel resistance of LCC6MDR Therapeutic index (P-gp [2]): >263.2
Selectivity for ABC transporters (P-gp, MRP1, BCRP) [3]: multi-selectivity towards P-gp, MRP1 and BCRP transporters
DOX resistance of 2008/MRP1 Therapeutic index (MRP1 [8]): >333.8
IC50 at 5 days (in vitro): > 50000 nM
EC50 (P-gp [5]): 190 nM

Cc1ccc2oc(-c3ccc(OCCOCCOCCn4cc(CN(Cc5ccccc5)Cc5cn(CCOCCOCCOc6ccc(-c7cc(=O)c8cc(C)ccc8o7)cc6)nn5)nn4)cc3)cc(=O)c2c1 [Ac15Az3, 2,2′-((((((((4,4′-((Benzylazanediyl)bis(methylene))bis(1H-1,2,3-triazole-4,1-diyl))bis(ethane-2,1-diyl))bis(oxy))bis(ethane-2,1-diyl))bis(oxy))bis(ethane-2,1-diyl))bis(oxy))bis(4,1-phenylene))bis(6-methyl-4H-chromen-4-one)]
EC50 (MRP1 [6]): 535 ± 62.6 nM
Vincristine resistance of 2008/MRP1 Therapeutic index (MRP1 [7]): >186.9
EC50 (BCRP [10]): 36 ± 4 nM
Selectivity for ABC transporters (P-gp, MRP1, BCRP) [3]: MRP1- and BCRP-dual selectivity
DOX resistance of 2008/MRP1 Therapeutic index (MRP1 [8]): >210.5
IC50 at 5 days (in vitro): > 100000 nM
